Source: PubChem BioAssay AID248 (DTP/NCI, 2004)
“And” between values parts separate entries of the source, which are not always exact repeats. Equal entries are not always repeated. Inconclusive results and toxic doses are left out. Rule as the data show it: active = T/C of 150% or more; inactive = T/C below 125%.

Tested on: L1210 leukemia ip in BDF1 mice, survival T/C
Experiment: NCI In Vivo Anticancer Drug Screen. Data for tumor model L1210 Leukemia (intraperitoneal) in B6D2F1 (BDF1) mice
Details: endpoint: mean survival time, higher = longer survival
Procedure, shortened: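 Tumor was transplanted into mice, which were then dosed with test compound or vehicle alone. Survival was recorded for each group, and the treated figure was expressed relative to the control figure.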

[1] = dose: 100.0 mg/kg/injection, schedule: Q01DX009 (ip), vehicle: saline with Tween-80
[2] = dose: 100.0 mg/kg/injection, schedule: Q04DX003 (ip), vehicle: saline with Tween-80
[3] = dose: 200.0 mg/kg/injection, schedule: Q01DX009 (ip), vehicle: saline with Tween-80
[4] = dose: 200.0 mg/kg/injection, schedule: Q04DX003 (ip), vehicle: saline with Tween-80
[5] = dose: 400.0 mg/kg/injection, schedule: Q01DX009 (ip), vehicle: saline with Tween-80
[6] = dose: 400.0 mg/kg/injection, schedule: Q04DX003 (ip), vehicle: saline with Tween-80
[7] = dose: 100.0 mg/kg/injection, schedule: Q01DX001 (ip), vehicle: saline
[8] = dose: 50.0 mg/kg/injection, schedule: Q04DX003 (ip), vehicle: saline with Tween-80
[9] = dose: 50.0 mg/kg/injection, schedule: Q01DX009 (ip), vehicle: saline with Tween-80

Measured: T/C

CCC1C/C(=C\NC(N)=O)C(=O)O1 (centres undefined)
inactive: [1] 96 % of control | [2] 96 % of control | [3] 100 % of control | [4] 104 % of control | [5] 100 % of control | [6] 101 % of control

Cc1cc2c(cc1C)N(C(=O)CN1CCCCC1)CC(=O)N2
inactive: dose: 75.0 mg/kg/injection, schedule: Q01DX001 (ip), vehicle: saline 93 % of control | dose: 150.0 mg/kg/injection, schedule: Q01DX001 (ip), vehicle: saline 91 % of control | dose: 300.0 mg/kg/injection, schedule: Q01DX001 (ip), vehicle: saline 93 % of control

CCCCCN1C(=O)NC(=O)C(Cl)C1=O (centres undefined)
inactive: [7] 89 % of control

C#CCCCN1CCC2(CC1)C(=O)N(C(=O)N(C)C)CN2c1ccccc1
inactive: dose: 25.0 mg/kg/injection, schedule: Q04DX003 (ip), vehicle: saline with Tween-80 105 % of control | [8] 103 % of control | [2] 88 % of control and 92 % of control

COc1cccc(NC(=O)NC(C)(C)C)c1
inactive: [9] 95 % of control and 119 % of control | dose: 100.0 mg/kg/injection, schedule: Q01DX001 (ip), vehicle: saline with Tween-80 106 % of control | dose: 100.0 mg/kg/injection, schedule: Q04DX002 (ip), vehicle: saline with Tween-80 97 % of control and 103 % of control | [2] 105 % of control | dose: 200.0 mg/kg/injection, schedule: Q01DX001 (ip), vehicle: saline with Tween-80 100 % of control | dose: 200.0 mg/kg/injection, schedule: Q04DX002 (ip), vehicle: saline with Tween-80 94 % of control and 100 % of control | [4] 104 % of control | dose: 400.0 mg/kg/injection, schedule: Q01DX001 (ip), vehicle: saline with Tween-80 111 % of control | [5] 103 % of control and 108 % of control | dose: 400.0 mg/kg/injection, schedule: Q04DX002 (ip), vehicle: saline with Tween-80 97 % of control and 86 % of control | [6] 96 % of control

O=C(O)c1ccc(C(=O)c2ccc([N+](=O)[O-])cc2)cc1
inactive: dose: 25.0 mg/kg/injection, schedule: Q01DX009 (ip), vehicle: carboxymethylcellulose (CMC) 102 % of control and 104 % of control | dose: 50.0 mg/kg/injection, schedule: Q01DX009 (ip), vehicle: carboxymethylcellulose (CMC) 95 % of control and 108 % of control | dose: 100.0 mg/kg/injection, schedule: Q01DX001 (ip), vehicle: carboxymethylcellulose (CMC) 92 % of control and 97 % of control | dose: 100.0 mg/kg/injection, schedule: Q01DX009 (ip), vehicle: carboxymethylcellulose (CMC) 95 % of control and 102 % of control | dose: 100.0 mg/kg/injection, schedule: Q04DX002 (ip), vehicle: carboxymethylcellulose (CMC) 101 % of control and 102 % of control | dose: 100.0 mg/kg/injection, schedule: Q04DX003 (ip), vehicle: carboxymethylcellulose (CMC) 105 % of control and 114 % of control | dose: 200.0 mg/kg/injection, schedule: Q01DX001 (ip), vehicle: carboxymethylcellulose (CMC) 98 % of control and 100 % of control | dose: 200.0 mg/kg/injection, schedule: Q04DX002 (ip), vehicle: carboxymethylcellulose (CMC) 93 % of control and 95 % of control | dose: 200.0 mg/kg/injection, schedule: Q04DX003 (ip), vehicle: carboxymethylcellulose (CMC) 97 % of control and 98 % of control | dose: 400.0 mg/kg/injection, schedule: Q01DX001 (ip), vehicle: carboxymethylcellulose (CMC) 93 % of control and 100 % of control | dose: 400.0 mg/kg/injection, schedule: Q01DX009 (ip), vehicle: carboxymethylcellulose (CMC) 104 % of control | dose: 400.0 mg/kg/injection, schedule: Q04DX002 (ip), vehicle: carboxymethylcellulose (CMC) 95 % of control and 98 % of control | dose: 400.0 mg/kg/injection, schedule: Q04DX003 (ip), vehicle: carboxymethylcellulose (CMC) 96 % of control and 88 % of control

Cc1cccc(C)c1NC(=O)c1c(Cl)c(Cl)c(Cl)c(Cl)c1C(=O)O
inactive: dose: 25.0 mg/kg/injection, schedule: Q01DX009 (ip), vehicle: Klucel (hydroxypropylcellulose) (HPC) 95 % of control | dose: 50.0 mg/kg/injection, schedule: Q01DX009 (ip), vehicle: Klucel (hydroxypropylcellulose) (HPC) 87 % of control | dose: 100.0 mg/kg/injection, schedule: Q01DX009 (ip), vehicle: Klucel (hydroxypropylcellulose) (HPC) 94 % of control and 88 % of control | dose: 100.0 mg/kg/injection, schedule: Q04DX003 (ip), vehicle: Klucel (hydroxypropylcellulose) (HPC) 102 % of control | dose: 200.0 mg/kg/injection, schedule: Q04DX003 (ip), vehicle: Klucel (hydroxypropylcellulose) (HPC) 102 % of control | dose: 400.0 mg/kg/injection, schedule: Q04DX003 (ip), vehicle: Klucel (hydroxypropylcellulose) (HPC) 107 % of control

Cc1cc(Cl)c2c(Cl)ccc(Cl)c2n1
inactive: [7] 98 % of control | dose: 200.0 mg/kg/injection, schedule: Q01DX001 (ip), vehicle: saline 96 % of control | dose: 400.0 mg/kg/injection, schedule: Q01DX001 (ip), vehicle: saline 98 % of control

CC(=O)OCOC1C(COC(C)=O)OCOC(COC(C)=O)C1OCOC(C)=O (centres undefined)
inactive: dose: 100.0 mg/kg/injection, schedule: Q01DX001 (ip), vehicle: Klucel (hydroxypropylcellulose) (HPC) 103 % of control | dose: 200.0 mg/kg/injection, schedule: Q01DX001 (ip), vehicle: Klucel (hydroxypropylcellulose) (HPC) 103 % of control | dose: 400.0 mg/kg/injection, schedule: Q01DX001 (ip), vehicle: Klucel (hydroxypropylcellulose) (HPC) 110 % of control

O=C(O)COc1ccc(OS(=O)(=O)c2ccccc2)cc1
inactive: dose: 100.0 mg/kg/injection, schedule: Q04DX002 (ip), vehicle: Klucel (hydroxypropylcellulose) (HPC) 103 % of control | dose: 200.0 mg/kg/injection, schedule: Q04DX002 (ip), vehicle: Klucel (hydroxypropylcellulose) (HPC) 111 % of control | dose: 400.0 mg/kg/injection, schedule: Q04DX002 (ip), vehicle: Klucel (hydroxypropylcellulose) (HPC) 103 % of control

CCCCCCCCCCCCCCCCCCc1ccc(O)cc1O
inactive: [2] 89 % of control | [4] 92 % of control | [6] 86 % of control

NCC1CCCCC1
inactive: dose: 6.25 mg/kg/injection, schedule: Q01DX009 (ip), vehicle: saline 107 % of control | dose: 12.0 mg/kg/injection, schedule: Q04DX003 (ip), vehicle: saline 98 % of control | dose: 12.5 mg/kg/injection, schedule: Q01DX009 (ip), vehicle: saline 105 % of control | dose: 25.0 mg/kg/injection, schedule: Q01DX009 (ip), vehicle: saline 100 % of control | dose: 25.0 mg/kg/injection, schedule: Q04DX003 (ip), vehicle: saline 110 % of control | dose: 50.0 mg/kg/injection, schedule: Q01DX009 (ip), vehicle: saline 88 % of control | dose: 50.0 mg/kg/injection, schedule: Q04DX003 (ip), vehicle: saline 104 % of control

O=C(Nc1ccc([N+](=O)[O-])cc1Cl)Oc1ccc(Br)cc1Br
inactive: [2] 100 % of control | [4] 95 % of control | [6] 100 % of control

CCOC(=O)C1=C(O)c2c(sc(C)c2C)N(S(=O)(=O)c2ccc(C)cc2)CC1
inactive: [9] 93 % of control | [8] 97 % of control | [1] 90 % of control | [2] 101 % of control | [3] 96 % of control | [4] 93 % of control | [6] 98 % of control

C1CSC(SCCSC2=NCCS2)=N1
inactive: dose: 62.5 mg/kg/injection, schedule: Q01DX009 (ip), vehicle: carboxymethylcellulose (CMC) 89 % of control | dose: 125.0 mg/kg/injection, schedule: Q01DX009 (ip), vehicle: carboxymethylcellulose (CMC) 100 % of control | dose: 250.0 mg/kg/injection, schedule: Q01DX009 (ip), vehicle: carboxymethylcellulose (CMC) 96 % of control

CCCCC(=O)NN
inactive: dose: 12.5 mg/kg/injection, schedule: Q01DX009 (ip), vehicle: saline with Tween-80 103 % of control | dose: 22.0 mg/kg/injection, schedule: Q01DX009 (ip), vehicle: saline with Tween-80 110 % of control | dose: 25.0 mg/kg/injection, schedule: Q01DX009 (ip), vehicle: saline with Tween-80 111 % of control and 112 % of control | [9] 100 % of control | dose: 60.0 mg/kg/injection, schedule: Q01DX009 (ip), vehicle: saline with Tween-80 118 % of control

CC(C)(Cl)CCl
inactive: [1] 106 % of control | [2] 101 % of control | [3] 89 % of control | [4] 98 % of control
